Experimental data as given in patent US20260317340A1, “COMPOUNDS, COMPOSITIONS, AND METHODS OF TREATING DISORDERS” (Chengdu Anticancer Bioscience, Ltd., priority 2023, published 2026).
Where two headings read alike, the source gives them in different places.

Legend:
RPE-Neo or RPE-MYC cells = assay: MTT assay of cellular proliferation (proliferative arrest); type: cell-based; details: for minimal effective concentration: read-out: Min. Effective conc. for Proliferative arrest (>50%)
Experimental: (§1) Human cancer cell lines were obtained from ATCC and cultured in DMEM (Gibco, Cleveland, TN, USA) supplemented with 5% fetal bovine serum (Gibco), penicillin (100 U/mL)-streptomycin (100 μg/mL) (Gibco, Cat. No. 15140-122), 2 mM L-glutamine (Gibco, 200 mM solution, Cat. No. 25030081), and 1 mM sodium pyruvate (Gibco, 100 mM solution, Cat. No. 11360070) at 37° C. in a humidified incubator that was maintained at 5% CO2.
Screening was conducted as described before (Li et al. 2019). Briefly, RPE-Neo or RPE-MYC or RPE-MYC expressing an EGFP-Histone 2B fusion protein were passaged as batches of 96-well plates, 18-24 hours before exposure to the chemical compounds of the present disclosure at concentrations from 20 nM to 20 μM. At 24, 48 or 72 hours after initiation of treatment, cells were analyzed for either an arrest in mitosis or a change in DNA content by GE IN-Cell Analyzer 2000. MTT assays of cellular proliferation were performed as previously described (Li et al. 2019). […]
(§2) As set forth in table 2 below, an values of greater than or equal to 1 nM and less than or equal to 1.0 μM is marked “A”; a value greater than 1.00 μM and less than or equal to 10.0 μM is marked “B”; a value greater than 10.0 μM and less than or equal to 30.0 μM is marked “C”; and a value greater than 30.0 μM and less than 1000 μM is marked “D.”

[1] = system: RPE-Neo or RPE-MYC or RPE-MYC expressing an EGFP-Histone 2B fusion protein; assay: Phenotypic screening assay: arrest in mitosis, change in DNA content (polyploidy), cell death; type: cell-based; details: 20 nM to 20 μM, 24, 48 or 72 hours
Experimental: as §1
Screening was conducted as described before (Li et al. 2019). Briefly, RPE-Neo or RPE-MYC or RPE-MYC expressing an EGFP-Histone 2B fusion protein were passaged as batches of 96-well plates, 18-24 hours before exposure to the chemical compounds of the present disclosure at concentrations from 20 nM to 20 μM. At 24, 48 or 72 hours after initiation of treatment, cells were analyzed for either an arrest in mitosis or a change in DNA content by GE IN-Cell Analyzer 2000. MTT assays of cellular proliferation were performed as previously described (Li et al. 2019).
as §2

[2] = read-out: Min. Effective conc. for Along with Cell Death
[3] = ≥5%, read-out: Min. Effective conc. for Mitotic Arrest (≥5%)
[4] = ≥5%, read-out: Min. Effective conc. for Polyploidy (≥5%)

Row | SMILES | minimal effective concentration (RPE-Neo or RPE-MYC cells) [µM] | minimal effective concentration [1, 2] [µM] | minimal effective concentration [1, 3] [µM] | minimal effective concentration [1, 4] [µM] | Min. Effective conc. for Proliferative arrest (>50%) (RPE-Neo or RPE-MYC cells; >50%) | Min. Effective conc. for Along with Cell Death [1] | Min. Effective conc. for Mitotic Arrest (≥5%) ([1]; ≥5%) | Min. Effective conc. for Polyploidy (≥5%) ([1]; ≥5%)
1 | Cc1ccc(CN2C(=O)CC(c3nnc(C4CC4)o3)=C(Br)c3scc(C)c32)cc1F [Compound 1, 8-Bromo-7-(5-cyclopropyl-1,3,4-oxadiazol-2-yl)-4-(3-fluoro-4-methylbenzyl)-3-methyl-4,6-dihydro-5H-thieno[3,2-b]azepin-5-one] | 0.001 to 1 | 0.001 to 1 | 0.001 to 1 | 0.001 to 1 | – | – | – | –
2 | Cc1ccc(CN2C(=O)CC(c3nnc(C4CC4)o3)=C(Br)c3ccc(OCCOCCOCCOCCOc4ccc5c(c4)N(Cc4ccc(C)c(F)c4)C(=O)CC(c4nnc(C6CC6)o4)=C5Br)cc32)cc1F [Compound 2, 8,8′-((((Oxybis(ethane-2,1-diyl))bis(oxy))bis(ethane-2,1-diyl))bis(oxy))bis(5-bromo-4-(5-cyclopropyl-1,3,4-oxadiazol-2-yl)-1-(3-fluoro-4-methylbenzyl)-1,3-dihydro-2H-benzo[b]azepin-2-one)] | 1 to 10 | 1 to 10 | 1 to 10 | 1 to 10 | – | – | – | –
3 | Cc1ccc(CN2C(=O)CC(c3nnc(C4CC4)o3)=C(Br)c3ccc(OCCOCCOCCOc4ccc5c(c4)N(Cc4ccc(C)c(F)c4)C(=O)CC(c4nnc(C6CC6)o4)=C5Br)cc32)cc1F [Compound 3, 8,8′-(((Ethane-1,2-diylbis(oxy))bis(ethane-2,1-diyl))bis(oxy))bis(5-bromo-4-(5-cyclopropyl-1,3,4-oxadiazol-2-yl)-1-(3-fluoro-4-methylbenzyl)-1,3-dihydro-2H-benzo[b]azepin-2-one)] | 1 to 10 | 1 to 10 | 1 to 10 | 1 to 10 | – | – | – | –
4 | COc1ccc(CN2C(=O)CC(c3nnc(C4CC4)o3)=C(Br)c3cccc(F)c32)cc1 [Compound 4, 5-bromo-4-(5-cyclopropyl-1,3,4-oxadiazol-2-yl)-9-fluoro-1-(4-methoxybenzyl)-1,3-dihydro-2H-benzo[b]azepin-2-one] | 0.001 to 1 | 0.001 to 1 | 0.001 to 1 | 0.001 to 1 | – | – | – | –
5 | COc1ccc(CN2C(=O)CC(c3nnc(C4CC4)o3)=C(Br)c3ccccc32)c(F)c1 [Compound 5, 5-Bromo-4-(5-cyclopropyl-1,3,4-oxadiazol-2-yl)-1-(2-fluoro-4-methoxybenzyl)-1,3-dihydro-2H-benzo[b]azepin-2-one] | 0.001 to 1 | 0.001 to 1 | 0.001 to 1 | 0.001 to 1 | – | – | – | –
6 | CCc1ccc(CN2C(=O)CC(c3nnc(C4CC4)o3)=C(Br)c3ccccc32)cc1 [Compound 6, 5-Bromo-4-(5-cyclopropyl-1,3,4-oxadiazol-2-yl)-1-(4-ethylbenzyl)-1,3-dihydro-2H-benzo[b]azepin-2-one] | 0.001 to 1 | 0.001 to 1 | 0.001 to 1 | 0.001 to 1 | – | – | – | –
7 | COc1ccc(CN2C(=O)CC(c3cnco3)=C(Br)c3ccccc32)cc1 [Compound 7, 5-Bromo-1-(4-methoxybenzyl)-4-(oxazol-5-yl)-1,3-dihydro-21-benzo[b]azepin-2-one] | – | – | – | – | A (greater than or equal to 1 nM and less than or equal to 1.0 μM) | A (greater than or equal to 1 nM and less than or equal to 1.0 μM) | A (greater than or equal to 1 nM and less than or equal to 1.0 μM) | A (greater than or equal to 1 nM and less than or equal to 1.0 μM)
8 | COc1ccc(CN2C(=O)CC(c3ccon3)=C(Br)c3ccccc32)cc1 [Compound 8, 5-Bromo-4-(isoxazol-3-yl)-1-(4-methoxybenzyl)-1,3-dihydro-2H-benzo[b]azepin-2-one] | 0.001 to 1 | 0.001 to 1 | 0.001 to 1 | 0.001 to 1 | – | – | – | –
9 | COc1ccc(CN2C(=O)CC(c3nnc(C)o3)=C(Br)c3ccccc32)cc1 [Compound 9, 5-Bromo-1-(4-methoxybenzyl)-4-(5-methyl-1,3,4-oxadiazol-2-yl)-1,3-dihydro-2H-benzo[b]azepin-2-one] | 0.001 to 1 | 0.001 to 1 | 0.001 to 1 | 0.001 to 1 | – | – | – | –
10 | COc1ccc(CN2C(=O)CC(c3nnc(N)s3)=C(Br)c3ccccc32)cc1 [Compound 10, 4-(5-Amino-1,3,4-thiadiazol-2-yl)-5-bromo-1-(4-methoxybenzyl)-1,3-dihydro-2H-benzo[b]azepin-2-one] | 0.001 to 1 | 0.001 to 1 | 0.001 to 1 | 0.001 to 1 | – | – | – | –
11 | COc1ccc(CN2C(=O)CC(c3ncc(C)o3)=C(Br)c3ccccc32)cc1 [Compound 11, 5-Bromo-1-(4-methoxybenzyl)-4-(5-methyloxazol-2-yl)-1,3-dihydro-2H-benzo[b]azepin-2-one] | 0.001 to 1 | 0.001 to 1 | 0.001 to 1 | 0.001 to 1 | – | – | – | –
12 | COC(=O)C1=Cc2ccccc2N(Cc2ccc(C)c(F)c2)C(=O)C1 [Compound 12, methyl 1-(3-fluoro-4-methylbenzyl)-2-oxo-2,3-dihydro-1H-benzo[b]azepine-4-carboxylate] | 0.001 to 1 | 0.001 to 1 | 0.001 to 1 | 0.001 to 1 | – | – | – | –
13 | Cc1ccc(CN2C(=O)CC(c3nnc(C4CC4)o3)=Cc3ccccc32)cc1F [Compound 13, 4-(5-cyclopropyl-1,3,4-oxadiazol-2-yl)-1-(3-fluoro-4-methylbenzyl)-1,3-dihydro-2H-benzo[b]azepin-2-one] | 0.001 to 1 | 0.001 to 1 | 0.001 to 1 | 0.001 to 1 | – | – | – | –
14 | COc1ccc(CN2C(=O)CC(c3nnco3)=Cc3ccc(Br)cc32)cc1 [Compound 14, 8-bromo-1-(4-methoxybenzyl)-4-(1,3,4-oxadiazol-2-yl)-1,3-dihydro-2H-benzo[b]azepin-2-one] | 0.001 to 1 | 0.001 to 1 | 0.001 to 1 | 0.001 to 1 | – | – | – | –
15 | COc1ccc(CN2C(=O)CC(c3nnc(C)o3)=Cc3ccc(Br)cc32)cc1 [Compound 15, 8-bromo-1-(4-methoxybenzyl)-4-(5-methyl-1,3,4-oxadiazol-2-yl)-1,3-dihydro-2H-benzo[b]azepin-2-one] | 1 to 10 | 1 to 10 | 1 to 10 | 1 to 10 | – | – | – | –
16 | COc1ccc(CN2C(=O)CC(c3nnc(C)o3)=Cc3ccc(-c4cnn(C)c4)cc32)cc1 [Compound 16, 1-(4-methoxybenzyl)-4-(5-methyl-1,3,4-oxadiazol-2-yl)-8-(1-methyl-1H-pyrazol-4-yl)-1,3-dihydro-2H-benzo[b]azepin-2-one] | 0.001 to 1 | 0.001 to 1 | 0.001 to 1 | 0.001 to 1 | – | – | – | –
17 | COc1ccc(CN2C(=O)CC3(c4ncc(C)o4)CC3c3ccc(Br)cc32)cc1 (stereo not shown) [Compound 17, 6-bromo-4-(4-methoxybenzyl)-1a-(5-methyloxazol-2-yl)-1a,2,4,8b-tetrahydrobenzo[b]cyclopropa[d]azepin-3(1H)-one] | 1 to 10 | 1 to 10 | 1 to 10 | 1 to 10 | – | – | – | –
18 | Cc1cnc(C2=Cc3ccccc3N(Cc3ccc(C)c(F)c3)C(=O)C2)o1 [Compound 18, 1-(3-fluoro-4-methylbenzyl)-4-(5-methyloxazol-2-yl)-1,3-dihydro-2H-benzo[b]azepin-2-one] | 0.001 to 1 | 0.001 to 1 | 0.001 to 1 | 0.001 to 1 | – | – | – | –
19 | Cc1cnc(C2=Cc3ccc(Br)cc3N(Cc3ccc(C)c(F)c3)C(=O)C2)o1 [Compound 19, 8-bromo-1-(3-fluoro-4-methylbenzyl)-4-(5-methyloxazol-2-yl)-1,3-dihydro-2H-benzo[b]azepin-2-one] | 0.001 to 1 | 0.001 to 1 | 0.001 to 1 | 0.001 to 1 | – | – | – | –
